Reference: US20240199572A1, “COMPOUNDS, COMPOSITIONS, AND METHODS FOR TREATING TYPE 2 DIABETES AND DEMENTIA” (THE BOARD OF TRUSTEES OF THE UNIVERSITY OF ILLINOIS, priority 2021, published 2024)

Assays:
LXRβ = molecular target: T1, LXRβ (Homo sapiens, UniProt P55055); assay: LanthaScreen TR-FRET coactivator assay LXRβ; format: biochemical; conditions: read-out: EC50, LXRβ agonism, coactivator recruitment via TR-FRET
T1 construct: purchased Thermo Fisher Scientific
T1 sequence (P55055 212-460 limits assumed): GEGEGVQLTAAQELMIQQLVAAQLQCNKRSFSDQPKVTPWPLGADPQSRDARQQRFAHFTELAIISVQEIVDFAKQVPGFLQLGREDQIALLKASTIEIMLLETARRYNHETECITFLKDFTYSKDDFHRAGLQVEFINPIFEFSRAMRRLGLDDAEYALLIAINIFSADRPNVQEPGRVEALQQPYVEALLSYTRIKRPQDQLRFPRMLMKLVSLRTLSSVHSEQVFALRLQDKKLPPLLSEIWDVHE

J774 cells = assay: siRNA knockdown of LXRα/LXRβ in J774 cells; format: cell-based
Method: siRNA Knockdown. J774 cells were plated in 24-well plates in serum-containing medium, to which an additional 100 μL of medium containing 10 pmol of siRNA and 3 μL of LIPOFECTAMINE® RNAIMAX® transfection reagent (Thermo Fisher Scientific) were added. After 24 hours, serum-free medium containing 10 μM C12-57 or vehicle control was added to each well for 24 hours. Cells were lysed and analyzed per qPCR and immunoblot procedures above. siRNAs used: Thermo Fisher 188584 (Nr1h3 silencer), 186947 (Nr1h2 silencer), and AM4611 (Silencer Negative Control siRNA #1).

EC50 (LXRβ): 1300 nM
SMILES: CCOC(=O)c1cccc(NC(=O)c2sc(Cl)cc2S(=O)(=O)N(C)c2ccc(OCC)c(OCC)c2)c1 [CL2-57, ethyl 3-(5-chloro-3-(N-(3,4-diethoxyphenyl)-N-methylsulfamoyl)thiophene-2-carboxamido) benzoate]
ABCA1 induction under LXR siRNA knockdown (J774 cells; 10 μM, J774): mediated by LXRβ | Induction of Abcg1 under LXR siRNA knockdown (J774 cells; J774): reduced by LXRβ knockdown | Induction of Slc2a1 (GLUT1) under LXR siRNA knockdown (J774 cells; J774): reduced by LXRβ knockdown | Irs1 increases under LXR siRNA knockdown (J774 cells; J774): not affected by loss of either LXR isoform | LXR target gene Apoe (J774 cells; J774 cells): not significantly affected
